Data on two compounds can be found in patent US20140378551A1, “Composition for the Prophylactic Treatment of Neuropathic Pain” (Universite d'Auvergne, priority 2011, published 2014).

Where a name gives a salt, the structure may show the parent alone.

The conditions of data set [1]: doses of 5 to 30 mg memantine hydrochloride (Sang et al., 2002); cited from earlier work.
In data set [2] the test system is mechanical hyperalgesia induced by diabetes. Briefly: Chronic intrathecal treatment, mechanical hyperalgesia induced by diabetes. The class given is in vivo. The note with it: chronic treatment administered intrathecally. The source says:
(§1) It is relatively better tolerated by patients.

The test system of data set [3] is Tyr^1472 residue of the NR2B sub-unit of the NMDA receptor. Briefly: Chronic intrathecal treatment, phosphorylation of Tyr1472 residue in diabetes pain context. It is filed as in vivo. The note with it: chronic treatment administered intrathecally.
Excerpt: as §1

Regarding `CC12CC3CC(C)(C1)CC(N)(C3)C2` [memantine hydrochloride], the tolerance by patients entry in data set [1] is “well supported and tolerated by the patients”.
`CC(C)(C)n1nc(-c2ccc(Cl)cc2)c2c(N)ncnc21` [PP2, 4-amino-5-(4-chlorophenyl)-7-(dimethylethyl) pyrazolo [3,4-d] pyrimidine]: the “mechanical hyperalgesia induced by diabetes” value in data set [2] is given as “abolishes the mechanical hyperalgesia induced by diabetes”. Besides, the “phosphorylation of the Tyr1472 residue” value in data set [3] was “reduces phosphorylation of the Tyr^1472 residue”.
